The test system of this experiment is THP-1 (AML) cells. The experiment in a line: LSD1 CD11b cellular assay (flow cytometry). The format is cell-based. As to conditions: Homo sapiens, THP-1, 96 h; CD11b expressing cells, 4 days; read-out: THP-1 IC50. Background: Flow cytometry measures light scatter and fluorescence of single cells or particles in a stream.

Where only a bound is given, the exact number is not on record here.

Broadly, the IC50 is the concentration that inhibits the measured activity by half. In the case of `CNC(=O)c1ccc(-c2c(-c3ccc(C#N)c(F)c3)nc(N3CCC(N)CC3)n(C)c2=O)cn1` [Example 50, 5-[2-(4-amino-piperidin-1-yl)-4-(4-cyano-3-fluoro-phenyl)-1-methyl-6-oxo-1,6-dihydro-pyrimidin-5-yl]-pyridine-2-carboxylic acid methylamide], the concentration for half-maximal inhibition (IC50) is < 100 nM.
As for `COc1ccc(-c2c(-c3ccc(C#N)c(F)c3)nc(NC[C@H]3CCNC3)n(C)c2=O)cc1` [Example 51, 2-fluoro-4-{5-(4-methoxy-phenyl)-1-methyl-6-oxo-2-[(3S)-(pyrrolidin-3-ylmethyl)-amino]-1,6-dihydro-pyrimidin-4-yl}-benzonitrile], the figure is 100 to 1000 nM; as for `COc1ccc(-c2c(-c3ccc(C#N)c(F)c3)nc(NC[C@@H]3CCNC3)n(C)c2=O)cc1` [Example 52, 2-luoro-4-{5-(4-methoxy-phenyl)-1-methyl-6-oxo-2-[(3R)-(pyrrolidin-3-ylmethyl)-amino]-1,6-dihydro-pyrimidin-4-yl}-benzonitrile], 100 to 1000 nM; as for `COc1ccc(-c2c(-c3ccc(C#N)c(F)c3)nc(NC3CCNCC3)n(C)c2=O)cc1` [Example 53, 2-fluoro-4-[5-(4-methoxy-phenyl)-1-methyl-6-oxo-2-(piperidin-4-ylamino)-1,6-dihydro-pyrimidin-4-yl]-benzonitrile], 100 to 1000 nM.
As for `COc1ccc(-c2c(-c3ccc(C#N)c(F)c3)nc(N(C)C[C@H]3CCNC3)n(C)c2=O)cc1` [Example 54, 2-fluoro-4-[5-(4-methoxy-phenyl)-1-methyl-2-(methyl-(3S)-pyrrolidin-3-ylmethyl-amino)-6-oxo-1,6-dihydro-pyrimidin-4-yl]-benzonitrile], the concentration for half-maximal inhibition (IC50) is < 100 nM.
With `CN(C)c1ccc(-c2c(-c3ccc(C#N)c(F)c3)nc(N3CCC(N)CC3)n(C)c2=O)cn1` [Example 57, 4-[2-(4-amino-piperidin-1-yl)-5-(6-dimethylamino-pyridin-3-yl)-1-methyl-6-oxo-1,6-dihydro-pyrimidin-4-yl]-2-fluoro-benzonitrile], the IC50 was < 100 nM.
With `CNC1CCN(c2nc(-c3ccc(C#N)c(F)c3)c(-c3ccc(OC)nc3)c(=O)n2C)CC1` [Example 58, 2-fluoro-4-[5-(6-methoxy-pyridin-3-yl)-1-methyl-2-(4-methylamino-piperidin-1-yl)-6-oxo-1,6-dihydro-pyrimidin-4-yl]-benzonitrile] the figure was < 100 nM; with `CN(C)c1ccc(-c2c(-c3ccc(C#N)c(F)c3)nc(N3CCC(N)CC3)n(C)c2=O)cc1` [Example 59, 4-[2-(4-amino-piperidin-1-yl)-5-(4-dimethylamino-phenyl)-1-methyl-6-oxo-1,6-dihydro-pyrimidin-4-yl]-2-fluoro-benzonitrile], < 100 nM.
As for `Cn1c(N2CCC(N)CC2)nc(-c2ccc(C#N)c(F)c2)c(-c2ccc(N3CCCC3)nc2)c1=O` [Example 60, 4-[2-(4-amino-piperidin-1-yl)-1-methyl-6-oxo-5-(6-pyrrolidin-1-yl-pyridin-3-yl)-1,6-dihydro-pyrimidin-4-yl]-2-fluoro-benzonitrile], the figure is < 100 nM; as for `COc1ccc(-c2c(-c3ccc(C#N)c(F)c3)nc(N3CCCNCC3)n(C)c2=O)cn1` [Example 61, 4-[2-[1,4]diazepan-1-yl-5-(6-methoxy-pyridin-3-yl)-1-methyl-6-oxo-1,6-dihydro-pyrimidin-4-yl]-2-fluoro-benzonitrile], < 100 nM.
As for `COc1ccc(-c2c(-c3ccc(C#N)cc3)nc(N3CCCNCC3)n(C)c2=O)cn1` [Example 62], the figure is 100 to 1000 nM; as for `CN(C)c1ccc(-c2c(-c3ccc(C#N)c(F)c3)nc(N3CCCNCC3)n(C)c2=O)cn1` [Example 63, 4-[2-[1,4]diazepan-1-yl-5-(6-dimethylamino-pyridin-3-yl)-1-methyl-6-oxo-1,6-dihydro-pyrimidin-4-yl]-2-fluoro-benzonitrile], < 100 nM.
As to `COc1ccc(-c2c(-c3ccc(C#N)c(F)c3)nc(N3CC(N)C3)n(C)c2=O)cc1` [Example 64, 4-[2-(3-amino-azetidin-1-yl)-5-(4-methoxy-phenyl)-1-methyl-6-oxo-1,6-dihydro-pyrimidin-4-yl]-2-fluoro-benzonitrile], the half-inhibitory concentration (IC50) fell in the range of 100 to 1000 nM.
Regarding `CN(C)c1ccc(-c2c(-c3ccc(C#N)cc3)nc(N3CCCNCC3)n(C)c2=O)cn1` [Example 67, 4-[2-[1,4]diazepan-1-yl-5-(6-dimethylamino-pyridin-3-yl)-1-methyl-6-oxo-1,6-dihydro-pyrimidin-4-yl]-benzonitrile], the 50% inhibitory concentration (IC50) was < 100 nM.
As for `Cn1c(N2CCC(N)CC2)nc(-c2ccc(C#N)c(F)c2)c(-c2ccc(N3CCOCC3)nc2)c1=O` [Example 68, 4-[2-(4-amino-piperidin-1-yl)-1-methyl-5-(6-morpholin-4-yl-pyridin-3-yl)-6-oxo-1,6-dihydro-pyrimidin-4-yl]-2-fluoro-benzonitrile], the figure is < 100 nM; as for `COc1ccc(-c2c(-c3ccc(C#N)c(F)c3)nc(N3CC(CN)C3)n(C)c2=O)cc1` [Example 69, 4-[2-(3-aminomethyl-azetidin-1-yl)-5-(4-methoxy-phenyl)-1-methyl-6-oxo-1,6-dihydro-pyrimidin-4-yl]-2-fluoro-benzonitrile], 100 to 1000 nM; as for `CNCC1CN(c2nc(-c3ccc(C#N)c(F)c3)c(-c3ccc(OC)cc3)c(=O)n2C)C1` [Example 70, 2-fluoro-4-[5-(4-methoxy-phenyl)-1-methyl-2-(3-methylaminomethyl-azetidin-1-yl)-6-oxo-1,6-dihydro-pyrimidin-4-yl]-benzonitrile], < 100 nM.
As for `CN(C)C1CCN(c2nc(-c3ccc(C#N)c(F)c3)c(-c3ccc4c(cnn4C)c3)c(=O)n2C)CC1` [Example 72, 4-[2-(4-dimethylamino-piperidin-1-yl)-1-methyl-5-(1-methyl-1H-indazol-5-yl)-6-oxo-1,6-dihydro-pyrimidin-4-yl]-2-fluoro-benzonitrile], the figure is < 100 nM; as for `Cn1c(N2CCC(N)CC2)nc(-c2ccc(C#N)c(F)c2)c(-c2ccc3[nH]ccc3c2)c1=O` [Example 73, 4-[2-(4-amino-piperidin-1-yl)-5-(1H-indol-5-yl)-1-methyl-6-oxo-1,6-dihydro-pyrimidin-4-yl]-2-fluoro-benzonitrile], < 100 nM.
With `Cn1c(N2CCC(N)CC2)nc(-c2ccc(C#N)c(F)c2)c(-c2ccc3c(ccn3C)c2)c1=O` [Example 74, 4-[2-(4-amino-piperidin-1-yl)-1-methyl-5-(1-methyl-1H-indol-5-yl)-6-oxo-1,6-dihydro-pyrimidin-4-yl]-2-fluoro-benzonitrile] the figure was < 100 nM.
In the case of `Cn1c(N2CCC(N)CC2)nc(-c2ccc(C#N)c(F)c2)c(-c2ccc3cc[nH]c3c2)c1=O` [Example 75, 4-[2-(4-amino-piperidin-1-yl)-5-(1H-indol-6-yl)-1-methyl-6-oxo-1,6-dihydro-pyrimidin-4-yl]-2-fluoro-benzonitrile], the IC50 is < 100 nM.
Take `Cn1c(N2CCC(N)CC2)nc(-c2ccc(C#N)c(F)c2)c(-c2ccc3ccn(C)c3c2)c1=O` [Example 76, 4-[2-(4-amino-piperidin-1-yl)-1-methyl-5-(1-methyl-1H-indol-6-yl)-6-oxo-1,6-dihydro-pyrimidin-4-yl]-2-fluoro-benzonitrile]: the 50% inhibitory concentration (IC50) was < 100 nM.
On to `Cn1c(N2CCC(N)CC2)nc(-c2ccc(C#N)c(F)c2)c(-c2ccc3cn[nH]c3c2)c1=O` [Example 77, 4-[2-(4-amino-piperidin-1-yl)-5-(1H-indazol-6-yl)-1-methyl-6-oxo-1,6-dihydro-pyrimidin-4-yl]-2-fluoro-benzonitrile], for which the concentration for half-maximal inhibition (IC50) is < 100 nM.
With `COc1ccc(-c2c(-c3ccc(C#N)c(F)c3)nc(N3CC[C@@H](N)[C@@H](F)C3)n(C)c2=O)cc1` [Example 78, 4-[2-((4R,3S)-4-amino-3-fluoro-piperidin-1-yl)-5-(4-methoxy-phenyl)-1-methyl-6-oxo-1,6-dihydro-pyrimidin-4-yl]-2-fluoro-benzonitrile] the figure was < 100 nM; with `COc1ccc(-c2c(-c3ccc(C#N)c(F)c3)nc(N3CC[C@H](N)[C@H](F)C3)n(C)c2=O)cc1` [Example 79, 4-[2-((4S,3R)-4-amino-3-fluoro-piperidin-1-yl)-5-(4-methoxy-phenyl)-1-methyl-6-oxo-1,6-dihydro-pyrimidin-4-yl]-2-fluoro-benzonitrile], < 100 nM.
With `CN(C)C1CCN(c2nc(-c3ccc(C#N)c(F)c3)c(-c3ccc4cn(C)nc4c3)c(=O)n2C)CC1` [Example 80, 4-[2-(4-dimethylamino-piperidin-1-yl)-1-methyl-5-(2-methyl-2H-indazol-6-yl)-6-oxo-1,6-dihydro-pyrimidin-4-yl]-2-fluoro-benzonitrile] the figure was < 100 nM; with `CN(C)c1ncc(-c2c(-c3ccc(C#N)c(F)c3)nc(N3CCC(N(C)C)CC3)n(C)c2=O)cn1` [Example 81, 4-[2′-dimethylamino-2-(4-dimethylamino-piperidin-1-yl)-1-methyl-6-oxo-1,6-dihydro-[5,5′]bipyrimidinyl-4-yl]-2-fluoro-benzonitrile], 100 to 1000 nM.
For `Cc1ccc(-c2c(-c3ccc(C#N)c(F)c3)nc(N3CCC(N(C)C)CC3)n(C)c2=O)cn1` [Example 82, 4-[2-(4-dimethylamino-piperidin-1-yl)-1-methyl-5-(6-methyl-pyridin-3-yl)-6-oxo-1,6-dihydro-pyrimidin-4-yl]-2-fluoro-benzonitrile], the IC50 is 100 to 1000 nM.
With `CNC1CCN(c2nc(-c3ccc(C#N)c(F)c3)c(-c3ccc(N(C)C)nc3)c(=O)n2C)CC1` [Example 83, 4-[5-(6-dimethylamino-pyridin-3-yl)-1-methyl-2-(4-methylamino-piperidin-1-yl)-6-oxo-1,6-dihydro-pyrimidin-4-yl]-2-fluoro-benzonitrile] the figure was < 100 nM; with `CN(C)C1CCN(c2nc(-c3ccc(C#N)c(F)c3)c(-c3ccc4cn[nH]c4c3)c(=O)n2C)CC1` [Example 84, 4-[2-(4-dimethylamino-piperidin-1-yl)-5-(2H-indazol-6-yl)-1-methyl-6-oxo-1,6-dihydro-pyrimidin-4-yl]-2-fluoro-benzonitrile], < 100 nM.

For the origin of these results see US10023543B2 (CELGENE QUANTICEL RESEARCH, INC., priority 2014, dated 2018).
